Measurements as given in US9428508B2, “2,4-diamino-6,7-dihydro-5H-pyrrolo[2,3]pyrimidine derivatives as FAK/Pyk2 inhibitors” (Centaurus BioPharma Co., Ltd., priority 2011, dated 2016).

Tests used:
[1] = molecular target: FAK (Homo sapiens (Human), UniProt Q05397); assay: Biochemical assay for FAK activity (LANCE TR-FRET, ULight-poly Glu,Ala,Tyr substrate); details: GST-tagged FAK, 120 min reaction
Protocol: (§1) Biochemical Assay for FAK/Pyk2 Activity
(§2) GST-tagged FAK was purchased from Invitrogen (PV3832). GST-tagged PYK2 was purchased from Invitrogen (PV4567). The activity of FAK/PYK2 was measured by monitoring the phosphorylation of a fluorophore labeled ULight-poly Glu, Ala, Tyr (1:1:1) peptide substrate from Perkin Elmer (TRF0101) in the presence of ATP. The phosphorylated tyrosine residue was recognized by a LANCE Europium chelate labeled anti-phosphotyrosine (PY20) antibody from Perkin Elmer (AD0066). This brought the fluorophore and europium chelate in close proximity ([…]) that upon excitation at 320 nm by an Envision (PerkinElmer), energy can be transferred from the donor Europium chelate to the acceptor fluorophore. […] The strength of the signal was, therefore, directly proportional to the FAK/PYK2 activity.
(§3) To measure inhibitory activity of FAK/PYK2 inhibitors, compounds were first prepare as a 1 mM stock in 100% DMSO and 3-fold serial dilution was performed in a 96-well plate (Corning, 3897) to generate 12 different concentration of 100× stock. A 5 μl of 100× stock of each concentration was added to wells containing 95 μl of 1× reaction buffer (40 mM Tris, pH7.5, […], 1 mM DTT and 1 mM CHAPS) to generate 5× stock. Then 2 μl of 5× stock of each concentration was added to a 384 wells-OptiPlate (PerkinElmer, 6007299).
(§4) For FAK, 4 μl of 2.5 nM FAK, 1 ul of 8 μg/μl BSA and 1.5 μl of 666 nM ULight-poly Glu, Ala, Tyr (1:1:1) peptide substrate, prepared in above reaction buffer, were added to each well. The reaction was initiated by adding 1.5 μl of 33.3 μM ATP. The reaction was allowed to proceed for 120 min before being quenched with 5 μl of 40 mM EDTA stop buffer prepared in 1×LANCE detection buffer (PerkinElmer, CR97-100).
(§5) Upon quenching of the reaction, 5 μl of 8 nM anti-phosphotyrosine antibody was added to each well and incubated for 60 minutes. The plate was measured using an Envision (PerkinElmer) based on the theory mentioned above.

[2] = molecular target: PYK2 (Homo sapiens (Human), UniProt Q14289); assay: Biochemical assay for PYK2 activity (LANCE TR-FRET, ULight-poly Glu,Ala,Tyr substrate); details: GST-tagged PYK2, 40 min reaction
Protocol: as §1, §2, §3
as §4, with “PYK2, 5” for “FAK, 4”, “2” for “2.5”, “PYK2” for “FAK, 1 ul of 8 μg/μl BSA”, “46.6” for “33.3”, “40” for “120”
as §5

PYK2, sequence (Q14289 whole entry): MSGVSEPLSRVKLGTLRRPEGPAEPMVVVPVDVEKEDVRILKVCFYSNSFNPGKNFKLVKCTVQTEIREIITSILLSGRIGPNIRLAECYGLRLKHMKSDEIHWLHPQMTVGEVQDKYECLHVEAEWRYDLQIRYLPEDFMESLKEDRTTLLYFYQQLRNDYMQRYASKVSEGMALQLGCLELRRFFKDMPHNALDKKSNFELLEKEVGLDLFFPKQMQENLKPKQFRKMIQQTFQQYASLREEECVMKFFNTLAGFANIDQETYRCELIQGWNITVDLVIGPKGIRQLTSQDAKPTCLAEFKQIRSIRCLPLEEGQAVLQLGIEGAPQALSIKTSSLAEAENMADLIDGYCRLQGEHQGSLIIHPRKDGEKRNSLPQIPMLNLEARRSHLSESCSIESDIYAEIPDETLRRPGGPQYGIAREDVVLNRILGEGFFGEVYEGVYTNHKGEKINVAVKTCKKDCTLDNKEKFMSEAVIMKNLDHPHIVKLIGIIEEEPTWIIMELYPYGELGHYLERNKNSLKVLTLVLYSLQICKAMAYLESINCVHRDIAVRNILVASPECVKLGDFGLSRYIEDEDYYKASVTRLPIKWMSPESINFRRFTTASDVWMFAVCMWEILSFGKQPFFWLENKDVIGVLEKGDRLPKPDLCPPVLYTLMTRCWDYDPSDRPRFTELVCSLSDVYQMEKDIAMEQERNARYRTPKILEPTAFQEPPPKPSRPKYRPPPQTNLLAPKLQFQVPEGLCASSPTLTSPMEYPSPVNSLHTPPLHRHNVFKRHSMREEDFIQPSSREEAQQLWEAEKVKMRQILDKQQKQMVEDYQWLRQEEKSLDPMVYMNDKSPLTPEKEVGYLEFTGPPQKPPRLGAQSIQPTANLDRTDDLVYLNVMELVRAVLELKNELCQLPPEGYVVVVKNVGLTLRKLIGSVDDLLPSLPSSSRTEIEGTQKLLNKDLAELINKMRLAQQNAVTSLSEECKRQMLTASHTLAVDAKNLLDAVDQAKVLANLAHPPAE
FAK, sequence (Q05397 whole entry): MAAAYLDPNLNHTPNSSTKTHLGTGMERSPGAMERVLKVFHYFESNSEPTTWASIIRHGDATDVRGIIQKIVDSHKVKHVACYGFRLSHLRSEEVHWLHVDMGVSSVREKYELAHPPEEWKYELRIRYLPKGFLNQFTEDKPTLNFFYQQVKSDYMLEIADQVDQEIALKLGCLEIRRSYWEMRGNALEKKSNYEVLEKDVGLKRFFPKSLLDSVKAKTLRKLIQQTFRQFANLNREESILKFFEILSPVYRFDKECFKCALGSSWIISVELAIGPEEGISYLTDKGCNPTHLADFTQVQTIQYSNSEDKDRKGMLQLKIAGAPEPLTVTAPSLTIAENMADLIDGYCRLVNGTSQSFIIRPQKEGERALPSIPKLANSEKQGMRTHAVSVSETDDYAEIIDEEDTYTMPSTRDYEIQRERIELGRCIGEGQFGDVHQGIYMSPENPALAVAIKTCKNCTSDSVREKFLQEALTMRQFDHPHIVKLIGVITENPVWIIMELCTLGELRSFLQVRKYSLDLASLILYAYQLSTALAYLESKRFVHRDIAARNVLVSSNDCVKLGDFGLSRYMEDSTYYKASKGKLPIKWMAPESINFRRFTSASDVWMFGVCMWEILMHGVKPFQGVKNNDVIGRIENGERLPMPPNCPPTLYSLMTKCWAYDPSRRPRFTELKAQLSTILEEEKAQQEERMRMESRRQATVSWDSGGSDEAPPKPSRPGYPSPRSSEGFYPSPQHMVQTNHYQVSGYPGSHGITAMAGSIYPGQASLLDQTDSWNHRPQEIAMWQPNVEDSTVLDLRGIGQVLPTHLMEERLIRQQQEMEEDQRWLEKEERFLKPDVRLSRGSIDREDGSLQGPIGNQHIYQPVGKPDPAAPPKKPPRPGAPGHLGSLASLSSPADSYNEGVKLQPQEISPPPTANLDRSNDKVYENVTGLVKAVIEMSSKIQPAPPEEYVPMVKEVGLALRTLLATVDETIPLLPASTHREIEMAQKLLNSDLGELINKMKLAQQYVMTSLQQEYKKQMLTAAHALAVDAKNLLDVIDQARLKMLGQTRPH

IC50 [1]	IC50 [2]	SMILES
< 200 nM	< 500 nM	COc1cc(N2CCOCC2)ccc1Nc1nc2c(c(Nc3ccccc3S(=O)(=O)NC3CCCC3)n1)C(C)(C)CN2 [Example 108, N-cyclopentyl-2-(2-(2-methoxy-4-morpholinophenylamino)-5,5-dimethyl-6,7-dihydro-5H-pyrrolo[2,3-d]pyrimidin-4-ylamino)benzenesulfonamide]
< 20 nM	< 20 nM	COc1cc(N2CCOCC2)ccc1Nc1nc2c(c(Nc3ccccc3S(=O)(=O)NC3CCC3)n1)C1(CC1)CN2 [Example 150, N-cyclobutyl-2-(2′-(2-methoxy-4-morpholinophenylamino)-6′,7′-dihydrospiro[cyclopropane-1,5′-pyrrolo[2,3-d]pyrimidine]-4′-ylamino)benzenesulfonamide]
< 20 nM	< 50 nM	CNC(=O)c1ccccc1Nc1nc(Nc2ccc(N3CCOCC3)cc2OC)nc2c1[C@@H](C)CN2 [Example 102, (R)-2-(2-(2-methoxy-4-morpholinophenylamino)-5-methyl-6,7-dihydro-5H-pyrrolo[2,3-d]pyrimidin-4-ylamino)-N-methylbenzamide]
< 20 nM	< 20 nM	COc1cc(-n2cc(C)nc2C)ccc1Nc1nc2c(c(Nc3ccccc3S(=O)(=O)NC(C)C)n1)CCN2 [Example 90, 2-(2-(4-(2,4-dimethyl-1H-imidazol-1-yl)-2-methoxyphenylamino)-6,7-dihydro-5H-pyrrolo[2,3-d]pyrimidin-4-ylamino)-N-isopropylbenzenesulfonamide]
< 20 nM	< 20 nM	CCCCNS(=O)(=O)c1ccccc1Nc1nc(Nc2ccc(N3CCOCC3)cc2OC)nc2c1C(C)(C)CN2 [Example 110, N-butyl-2-(2-(2-methoxy-4-morpholinophenylamino)-5,5-dimethyl-6,7-dihydro-5H-pyrrolo[2,3-d]pyrimidin-4-ylamino)benzenesulfonamide]
< 50 nM	< 500 nM	COc1cc(N2CCOCC2)ccc1Nc1nc2c(c(Nc3ccccc3S(=O)(=O)NC3CCCCC3)n1)C(C)CN2 (racemic) [Example 29, (±)-N-cyclohexyl-2-(2-(2-methoxy-4-morpholinophenylamino)-5-methyl-6,7-dihydro-5H-pyrrolo[2,3-d]pyrimidin-4-ylamino)benzenesulfonamide]
> 1000 nM	> 1000 nM	CNC(=O)c1ccccc1Nc1nc(Nc2ccc(N3CCOCC3)cc2CO)nc2c1CCN2 [Example 14, 2-(2-(2-(hydroxymethyl)-4-morpholinophenylamino)-6,7-dihydro-5H-pyrrolo[2,3-d]pyrimidin-4-ylamino)-N-methylbenzamide]
< 20 nM	< 20 nM	CC(C)NS(=O)(=O)c1ccccc1Nc1nc(Nc2ccc(N3CCOCC3)cc2)nc2c1CCN2 [Example 52, N-isopropyl-2-(2-(4-morpholinophenylamino)-6,7-dihydro-5H-pyrrolo[2,3-d]pyrimidin-4-ylamino)benzenesulfonamide]
< 20 nM	< 20 nM	COc1cc(OCCN2CCOCC2)ccc1Nc1nc2c(c(Nc3ccccc3S(=O)(=O)NC(C)C)n1)CCN2 [Example 70, N-isopropyl-2-(2-(2-methoxy-4-(2-morpholinoethoxy)phenylamino)-6,7-dihydro-5H-pyrrolo[2,3-d]pyrimidin-4-ylamino)benzenesulfonamide]
< 50 nM	< 100 nM	COc1cc(N2CCOCC2)ccc1Nc1nc2c(c(Nc3cccc(C)n3)n1)C1(CC1)CN2 [Example 154, N^2′-(2-methoxy-4-morpholinophenyl)-N^4′-(6-methylpyridin-2-yl)-6′,7′-dihydrospiro[cyclopropane-1,5′-pyrrolo[2,3-d]pyrimidine]-2′,4′-diamine]
< 20 nM	< 20 nM	CCNS(=O)(=O)c1ccccc1Nc1nc(Nc2ccc(N3CCOCC3)cc2OC)nc2c1C(C)(C)CN2 [Example 113, N-ethyl-2-(2-(2-methoxy-4-morpholinophenylamino)-5,5-dimethyl-6,7-dihydro-5H-pyrrolo[2,3-d]pyrimidin-4-ylamino)benzenesulfonamide]
< 20 nM	< 20 nM	COc1cc(N2CCOCC2)ccc1Nc1nc2c(c(Nc3ccccc3S(=O)(=O)NC(C)C)n1)C1(CC1)CN2 [Example 138, N-isopropyl-2-(2′-(2-methoxy-4-morpholinophenylamino)-6′,7′-dihydrospiro[cyclopropane-1,5′-pyrrolo[2,3-d]pyrimidine]-4′-ylamino)benzenesulfonamide]
< 20 nM	< 20 nM	CCC(C)NS(=O)(=O)c1ccccc1Nc1nc(Nc2ccc(N3CCOCC3)cc2OC)nc2c1CCN2 (stereo not shown) [Example 44, N-sec-butyl-2-(2-(2-methoxy-4-morpholinophenylamino)-6,7-dihydro-5H-pyrrolo[2,3-d]pyrimidin-4-ylamino)benzenesulfonamide]
< 500 nM	< 500 nM	COc1cc(-n2ccnc2)ccc1Nc1nc2c(c(Nc3ccccc3S(=O)(=O)NC(C)C)n1)CCN2 [Example 77, 2-(2-(4-(1H-imidazol-1-yl)-2-methoxyphenylamino)-6,7-dihydro-5H-pyrrolo[2,3-d]pyrimidin-4-ylamino)-N-isopropylbenzenesulfonamide]
< 200 nM	< 500 nM	COc1cc(N2CCOCC2)ccc1Nc1nc2c(c(Nc3ccccc3C(=O)N3CCCC3)n1)C(C)CN2 (racemic) [Example 24, (±)-(2-(2-(2-methoxy-4-morpholinophenylamino)-5-methyl-6,7-dihydro-5H-pyrrolo[2,3-d]pyrimidin-4-ylamino)phenyl)(pyrrolidin-1-yl)methanone]
< 1000 nM	< 1000 nM	COc1cc(N2CCOCC2)ccc1Nc1nc2c(c(Nc3ccccc3C=O)n1)CCN2 [Example 161, 2-(2-(2-methoxy-4-morpholinophenylamino)-6,7-dihydro-5H-pyrrolo[2,3-d]pyrimidin-4-ylamino)benzaldehyde]
< 50 nM	< 200 nM	COc1cc(-n2ncnn2)ccc1Nc1nc2c(c(Nc3ccccc3S(=O)(=O)NC(C)C)n1)CCN2 [Example 88, N-isopropyl-2-(2-(2-methoxy-4-(2H-tetrazol-2-yl)phenylamino)-6,7-dihydro-5H-pyrrolo[2,3-d]pyrimidin-4-ylamino)benzenesulfonamide]
< 500 nM	< 500 nM	COc1cc(N2CCOCC2)ccc1Nc1nc2c(c(Nc3ccccc3S(=O)(=O)NCCN(C)C)n1)CCN2 [Example 49, N-(2-(dimethylamino)ethyl)-2-(2-(2-methoxy-4-morpholinophenylamino)-6,7-dihydro-5H-pyrrolo[2,3-d]pyrimidin-4-ylamino)benzenesulfonamide]
< 20 nM	< 20 nM	CC(C)NS(=O)(=O)c1ccccc1Nc1nc(Nc2ccc(N3CCOCC3)cc2F)nc2c1CCN2 [Example 55, 2-(2-(2-fluoro-4-morpholinophenylamino)-6,7-dihydro-5H-pyrrolo[2,3-d]pyrimidin-4-ylamino)-N-isopropylbenzenesulfonamide]
< 20 nM	< 20 nM	CC(=O)Nc1cccc(Nc2nc3c(c(Nc4ccccc4S(=O)(=O)NC(C)C)n2)CCN3)c1 [Example 75, N-(3-(4-(2-(N-isopropylsulfamoyl)phenylamino)-6,7-dihydro-5H-pyrrolo[2,3-d]pyrimidin-2-ylamino)phenyl)acetamide]
